# pIC50, pKi: −log10 of the molar value. The source made the active and inactive calls. The rule behind the calls is not given here.
# How the values were obtained:
# [1] = molecular target: T1, von Hippel-Lindau disease tumor suppressor/Estrogen receptor (Homo sapiens) (UniProt P03372+P40337); assay: PROTAC activity at VHL/ERalpha in ER-positive human MCF7 cells assessed as induction of ERalpha degradation at 1 uM incubated for 12 hrs in presence of N-ethyl-5,6-bis(4-hydroxyphenyl)-N-(4-methoxyphenyl)-7-oxabicyclo[2.2.1]hept-5-ene-2-sulfonamide by Western blot analysis; format: cell-based
# [2] = molecular target: T2, Estrogen receptor beta (Homo sapiens, UniProt Q92731)
# [3] = test system: T47D; assay: Inhibition of nascent IGFBP4 RNA synthesis in human T47D cells incubated for 6 hrs by 4-thiouridine incorporation assay; format: functional, cell-based
# [4] = test system: tamoxifen-resistant LCC2 cell; assay: Antitumor activity against human ER-positive tamoxifen-resistant LCC2 cells xenografted in BALB/c nude mouse assessed as reduction in tumor growth at 5 micromol/kg, ip administered once every 2 days and measured every 2 days; format: functional, organism-based; details: dose 5.0 µmol/kg
# [5] = test system: MCF7; assay: Induction of cell cycle arrest in human MCF7 cells at 1 to 10 uM incubated for 24 hrs; format: functional, cell-based; details: dose 1-10 µM
# [6] = test system: MCF7; assay: Induction of apoptosis in human MCF7 cells at 1 to 10 uM incubated for 24 hrs by Annexin V-FITC/PI staining based analysis; format: functional, cell-based; details: dose 1-10 µM
# [7] = molecular target: T3, Estrogen receptor (Homo sapiens, UniProt P03372)
# T3 sequence (P03372 whole entry): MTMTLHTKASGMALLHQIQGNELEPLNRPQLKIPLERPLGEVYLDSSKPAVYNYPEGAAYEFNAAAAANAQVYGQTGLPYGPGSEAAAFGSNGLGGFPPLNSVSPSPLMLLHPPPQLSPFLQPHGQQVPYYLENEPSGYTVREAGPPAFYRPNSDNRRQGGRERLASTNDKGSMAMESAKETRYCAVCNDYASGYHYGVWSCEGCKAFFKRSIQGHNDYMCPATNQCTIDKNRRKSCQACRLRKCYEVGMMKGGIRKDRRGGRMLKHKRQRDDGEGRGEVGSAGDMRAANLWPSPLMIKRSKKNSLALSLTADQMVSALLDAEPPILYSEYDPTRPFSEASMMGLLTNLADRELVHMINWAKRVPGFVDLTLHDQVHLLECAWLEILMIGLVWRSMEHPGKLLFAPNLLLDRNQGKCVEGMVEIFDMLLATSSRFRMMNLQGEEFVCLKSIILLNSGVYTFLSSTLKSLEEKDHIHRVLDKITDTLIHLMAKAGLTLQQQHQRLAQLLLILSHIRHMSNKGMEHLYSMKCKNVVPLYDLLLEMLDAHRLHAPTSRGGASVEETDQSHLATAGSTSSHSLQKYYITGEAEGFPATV
# [8] = test system: MCF7; assay: Antitumor activity against human tamoxifen-sensitive MCF7 cells xenografted in BALB/c nude mouse assessed as reduction in cell proliferation at 5 micromol/kg, ip administered once every 2 days by ki67 staining based analysis; format: functional, organism-based; details: dose 5.0 µmol/kg
# [9] = molecular target: T4, Estrogen receptor (Homo sapiens) (UniProt P03372); assay: Inhibition of ERalpha binding to DNA in human T47D cells assessed as reduction in protein occupancy incubated for 6 hrs by ChIP-seq analysis; format: cell-based
# T4 sequence (whole entry): T3 sequence (P03372 whole entry)
# [10] = molecular target: von Hippel-Lindau disease tumor suppressor/Estrogen receptor beta (Homo sapiens) (UniProt Q92731+P40337); assay: PROTAC activity at VHL/ERbeta in human NCI-H1975 cells assessed as induction of ERbeta degradation at 1 to 10 uM incubated for 12 hrs by Western blot analysis; format: cell-based; details: dose 1-10 µM
# [11] = test system: T47D; assay: cells; details: Homo sapiens, 72 h
# [12] = Toxicity in BALB/c nude mouse xenografted with human tamoxifen-sensitive MCF7 cells assessed as mortality at 1 to 10 micromol/kg, ip administered once every 2 days and measured every 2 days; format: organism-based; details: in vivo, 48 h, dose 1-10 µmol/kg
# [13] = test system: MDA-MB-231; assay: cells; details: Homo sapiens, MDA-MB-231, 72 h
# [14] = test system: T47D; assay: Inhibition of gene transcription in human T47D cells assessed as reduction in H3K27ac levels in GREB1 promoter region by ChIP-seq analysis; format: functional, cell-based
# [15] = test system: T47D; assay: Inhibition of nascent GREB1 RNA synthesis in human T47D cells incubated for 6 hrs by 4-thiouridine incorporation assay; format: functional, cell-based
# [16] = Toxicity in BALB/c nude mouse xenografted with human tamoxifen-sensitive MCF7 cells assessed as pathological changes in liver at 1 to 10 micromol/kg, ip administered once every 2 days by H and E staining based assay; format: organism-based; details: in vivo, 48 h, dose 1-10 µmol/kg
# [17] = molecular target: T2, Estrogen receptor beta; assay: Binding affinity to ERbeta (unknown origin) assessed as relative binding affinity incubated for 2 hrs by fluorescence polarization assay relative to estradiol
# [18] = Toxicity in BALB/c nude mouse xenografted with human tamoxifen-sensitive MCF7 cells assessed as pathological changes in kidney at 1 to 10 micromol/kg, ip administered once every 2 days by H and E staining based assay; format: organism-based; details: in vivo, 48 h, dose 1-10 µmol/kg
# [19] = test system: T47D; assay: Inhibition of gene transcription in human T47D cells assessed as reduction in Pol II occupancy at GREB1 promoter region by ChIP-seq analysis; format: functional, cell-based
# [20] = cells; details: Homo sapiens, Tamoxifen-resistant LCC2 cell, 72 h
# [21] = test system: MCF7; assay: cells; details: Homo sapiens, MCF7, 72 h
# [22] = Toxicity in BALB/c nude mouse xenografted with human tamoxifen-sensitive MCF7 cells assessed as pathological changes in heart at 1 to 10 micromol/kg, ip administered once every 2 days by H and E staining based assay; format: organism-based; details: in vivo, 48 h, dose 1-10 µmol/kg
# [23] = test system: T47D; assay: Inhibition of gene transcription in human T47D cells assessed as reduction in Pol II occupancy at IGFBP4 promoter region by ChIP-seq analysis; format: functional, cell-based
# [24] = test system: MCF7; assay: Antitumor activity against human tamoxifen-sensitive MCF7 cells xenografted in BALB/c nude mouse assessed as inhibition of tumor growth at 1 to 10 micromol/kg, ip administered once every 2 days and measured every 2 days; format: functional, organism-based; details: dose 1-10 µmol/kg
# [25] = test system: T47D; assay: Inhibition of gene transcription in human T47D cells assessed as reduction in H3K27ac levels in IGFBP4 promoter region by ChIP-seq analysis; format: functional, cell-based
# [26] = molecular target: T1, von Hippel-Lindau disease tumor suppressor/Estrogen receptor (Homo sapiens); assay: PROTAC activity at VHL/ERalpha in ER-positive human MCF7 cells assessed as induction of ERalpha degradation at 1 uM incubated for 12 hrs in presence of proteasome inhibitor, MG132 by Western blot analysis; format: cell-based
# [27] = Selectivity index, ratio of Ki for ERalpha (unknown origin) to Ki for ERbeta (unknown origin)
# [28] = test system: T47D; assay: cells; details: Homo sapiens, 72 h; remark: listed apart in the source
# [29] = molecular target: T1, von Hippel-Lindau disease tumor suppressor/Estrogen receptor (Homo sapiens); assay: PROTAC activity at VHL/ERalpha in ER-positive human MCF7 cells assessed as induction of ERalpha degradation at 0.01 to 10 uM incubated for 12 hrs by Western blot analysis; format: cell-based; details: dose 0.01-10 µM
# [30] = in vitro; details: human, MCF-10A cells
# [31] = Toxicity in BALB/c nude mouse xenografted with human tamoxifen-sensitive MCF7 cells assessed as reduction in body weight at 1 to 10 micromol/kg, ip administered once every 2 days and measured every 2 days; format: organism-based; details: in vivo, 48 h, dose 1-10 µmol/kg
# [32] = test system: Mus musculus; assay: In vivo protac activity at VHL/ERalpha in BALB/c nude mouse xenografted with human tamoxifen-sensitive MCF7 cells assessed as reduction in ERalpha protein levels in tumor at 1 to 10 micromol/kg, ip administered once every 2 days by Western blot analysis; format: functional, organism-based; details: dose 1-10 µmol/kg
# [33] = molecular target: T1, von Hippel-Lindau disease tumor suppressor/Estrogen receptor (Homo sapiens); assay: PROTAC activity at VHL/ERalpha in ER-positive human tamoxifen-resistant LCC2 cells assessed as induction of ERalpha degradation at 2 uM incubated for 12 hrs by Western blot analysis; format: cell-based; details: tamoxifen-resistant LCC2 cell
# [34] = test system: MCF7; assay: Antitumor activity against human tamoxifen-sensitive MCF7 cells xenografted in BALB/c nude mouse assessed as increase in tumor necrosis area at 5 micromol/kg, ip administered once every 2 days by […] staining based analysis; format: functional, organism-based; details: dose 5.0 µmol/kg
# [35] = molecular target: T1, von Hippel-Lindau disease tumor suppressor/Estrogen receptor (Homo sapiens); assay: PROTAC activity at VHL/wild type ERalpha in ER-positive human MCF7 cells assessed as induction of ERalpha degradation at 1 uM incubated for 12 hrs by Western blot analysis; format: cell-based
# [36] = molecular target: T1, von Hippel-Lindau disease tumor suppressor/Estrogen receptor (Homo sapiens); assay: PROTAC activity at VHL/wild type ERalpha in ER-positive human T47D cells assessed as induction of ERalpha degradation at 2 uM incubated for 12 hrs by Western blot analysis; format: cell-based
# [37] = molecular target: T1, von Hippel-Lindau disease tumor suppressor/Estrogen receptor (Homo sapiens); assay: PROTAC activity at VHL/ERalpha in ER-positive human MCF7 cells assessed as induction of ERalpha degradation at 1 uM incubated for 12 hrs in presence of (2S,4R)-1-[(2S)-2-amino-3,3-dimethylbutanoyl]-4-hydroxy-N-[(1S)-1-[4-(4-methyl-1,3-thiazol-5-yl)phenyl]ethyl]pyrrolidine-2-carboxamide by Western blot analysis; format: cell-based
# [38] = Selectivity ratio of relative binding affinity for ERalpha (unknown origin) to relative binding affinity to ERbeta (unknown origin)
# [39] = test system: T47D; assay: cells; details: Homo sapiens, 72 h; remark: listed apart in the source
# T1 sequence (P40337 whole entry, looked up, one chain of several): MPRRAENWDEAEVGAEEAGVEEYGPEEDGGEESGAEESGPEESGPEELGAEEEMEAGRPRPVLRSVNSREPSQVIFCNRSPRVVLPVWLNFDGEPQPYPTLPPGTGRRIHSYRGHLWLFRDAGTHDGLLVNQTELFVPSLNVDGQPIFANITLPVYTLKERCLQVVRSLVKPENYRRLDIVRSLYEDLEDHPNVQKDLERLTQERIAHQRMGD
# T2 sequence (Q92731 whole entry): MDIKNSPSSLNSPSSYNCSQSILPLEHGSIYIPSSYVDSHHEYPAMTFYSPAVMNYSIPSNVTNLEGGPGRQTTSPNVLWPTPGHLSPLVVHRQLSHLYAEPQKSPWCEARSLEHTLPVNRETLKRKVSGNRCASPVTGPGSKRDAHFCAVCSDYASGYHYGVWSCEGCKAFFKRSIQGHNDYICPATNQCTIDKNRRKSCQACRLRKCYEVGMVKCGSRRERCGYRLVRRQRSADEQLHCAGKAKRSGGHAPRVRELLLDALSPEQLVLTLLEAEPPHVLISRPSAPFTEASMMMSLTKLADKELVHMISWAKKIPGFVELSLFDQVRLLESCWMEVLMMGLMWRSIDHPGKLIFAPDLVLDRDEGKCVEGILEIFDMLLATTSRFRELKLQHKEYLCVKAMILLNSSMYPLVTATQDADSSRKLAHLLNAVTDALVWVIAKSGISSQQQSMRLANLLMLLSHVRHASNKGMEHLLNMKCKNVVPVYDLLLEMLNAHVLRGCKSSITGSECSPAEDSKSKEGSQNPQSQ
# Chain of von Hippel-Lindau disease tumor suppressor/Estrogen receptor beta (Homo sapiens) (P40337 whole entry, looked up): as the sequence (P40337 whole entry, looked up, one chain of several) above
# Chain of von Hippel-Lindau disease tumor suppressor/Estrogen receptor beta (Homo sapiens) (Q92731 whole entry, looked up): as the sequence (Q92731 whole entry) above
smiles,measurement,setting,value
CCN(c1ccc(OCCCCCC(=O)N[C@H](C(=O)N2C[C@H](O)C[C@H]2C(=O)N[C@@H](C)c2ccc(-c3scnc3C)cc2)C(C)(C)C)cc1)S(=O)(=O)C1CC2OC1C(c1ccc(O)cc1)=C2c1ccc(O)cc1 (some centres undefined),Activity,[1],inactive
same,pKi,[2],4.88
same,inhibition,[3],Active
same,Activity,[4],Active
same,Activity,[5],Active
same,Activity,[6],Active
same,pKi,[7],5.60
same,Activity,[8],Active
same,inhibition,[9],Active
same,Activity,[10],inactive
same,pIC50,[11],5.12
same,Activity,[12],Non-Toxic
same,pIC50,[13],< 4.00
same,inhibition,[14],Active
same,inhibition,[15],Active
same,Activity,[16],Non-Toxic
same,RBA,[17],0.06%
same,Activity,[18],Non-Toxic
same,inhibition,[19],Active
same,pIC50,[20],4.91
same,pIC50,[21],6.51
same,Activity,[22],Non-Toxic
same,inhibition,[23],Active
same,inhibition,[24],Active
same,inhibition,[25],Active
same,Activity,[26],inactive
same,Ratio Ki,[27],5.16
same,pIC50,[28],5.09
same,Activity,[29],Active
same,IC50 at 72 h,[30],> 100 µM
same,Activity,[31],Non-Toxic
same,Activity,[32],Active
same,Activity,[33],Active
same,Activity,[34],Active
same,Activity,[35],Active
same,Activity,[36],Active
same,Activity,[37],inactive
same,Selectivity ratio,[38],1.33
same,pIC50,[39],5.02
